Assay results reported in patent US8206756B2, “Herbal composition for inflammatory disorders” (Piramal Life Sciences Limited, priority 2005, dated 2012).

Tests used:
IL-1β = assay: LPS-stimulated IL-1β release in hPBMCs (ELISA); format: cell-based; settings: Homo sapiens; LPS-stimulated hPBMC
Procedure: (§1) Primary screening—Human peripheral blood mononuclear cells (hPBMCs). TNF-α production by lipopolysaccharides (LPS) in hPBMCs was measured according to the method described by Jansky, L. et al (Physiol. Res. 52: 593-598, (2003)). Blood was collected from healthy donors into Potassium EDTA vacutainer tubes (BD vacutainer). The PBMCs were isolated using gradient centrifugation in Histopaque-1077 solution (Sigma). Isolated PBMCs were suspended in RPMI 1640 culture medium (Gibco BRL, Pasley, UK) containing 10% fetal bovine serum (FBS) (Hyclone, Utah, USA), 100 U/ml penicillin (Sigma Chemical Co. St Louis, Mo.) and 100 μg/ml streptomycin (Sigma Chemical Co. St Louis, Mo.). The cell concentration was adjusted to 1×10^6 cells/ml. The viability as determined by trypan blue dye exclusion was uniformly ≧98%. […] The % inhibition was recorded. Percent cytotoxicity of the test samples compared to control was evaluated.
(§2) The effect of the plant extract on the proinflammatory cytokines: TNF-α, interleukin-1β (IL-1β), interleukin-6 (IL-6) and interleukin-8 (IL-8) was measured using the supernatants generated in the primary screening assay. […]
(§3) The effect of the Compound 1, on the proinflammatory cytokines: TNF-α interleukin-1β (IL-1β), interleukin-6 (IL-6) and interleukin-8 (IL-8) was measured using the supernatants generated in the primary screening assay. […]

[1] = system: THP-1 cell adhesion to HUVECs; assay: Adhesion of THP-1 mononuclear cells to HUVEC monolayers; format: cell-based, human; settings: for Fluorescence Intensity: TNF-α 1 ng/ml; for Fold of control: unstimulated DMSO control = 1, stimulated = 18
Procedure: Adhesion studies were performed with the promonocytic cell line THP-1, which has been established as a useful model for monocytes in adhesion studies in Circ. Res., 97, 236-243, 2005, with modifications. THP-1 cells were washed twice with labeling medium (M200 plus LSGS). THP-1 cells (6×10^5 cells per ml) were labeled with 10 μg/ml bis-carboxyethyl-carboxyfluorescein acetoxymethylester (a fluorescent probe, BCECF-AM; Sigma) for 30 min at RT. After quenching with 0.1% BSA, the pellet was resuspended in labeling medium. To evaluate monocyte adhesion, HUVEC monolayers treated with TNF-α (1 ng/ml) in the presence or absence of various concentrations of test sample. The media was removed, washed and labeled-THP-1-cells were added to the wells (6×10^4 cells per well) and incubated for 10 minutes at RT in the dark. After co incubation, the wells were washed, filled with lysis buffer (0.1% Triton-X in 1.5 M Tris buffer) and incubated for 30 min. The fluorescence was measured using a fluorescent reader (PolarStar Optima, BMG Labtech) at an excitation peak of 485 nm and an emission peak of 520 nm. Values are means±SEM, representing fluorescent adhesion data. BAY 11-7082 [(E)-3-(4-methylphenylsulfonyl)-2-propenenitrile] was used as a standard and DMSO as vehicle control.

IL-6 = assay: LPS-stimulated IL-6 release in hPBMCs (ELISA); format: cell-based; settings: Homo sapiens; LPS-stimulated hPBMC
Procedure: as §1, §2, §3

IL-8 [2] = assay: IL-8 production by synovial cells from a RA patient; format: cell-based; settings: Homo sapiens, Synovial cell, 10 hours
Procedure: Cytokine production by synovial cells obtained from a rheumatoid arthritis (RA) patient undergoing knee replacement surgery was measured according to the method described by Brennan, F. M. et al (The Lancet. July 29: 244-247, (1989)). The synovial membrane tissue was digested in DMEM (Gibco) containing 10% FBS, 100 U/ml penicillin and 100 μg/ml streptomycin, 4 mg/ml collagenase type I (Worthington), 1.5 μg/ml Dnase type I (Sigma) and 15 U/ml heparin and incubated at 37° C. for 3 hours. After incubation, the digested tissue was filtered through a 70-μm membrane and the cells washed 3 times in complete medium (DMEM with 10% FBS). The synovial cells were cultured at 1×10^6 cells/ml in presence/absence of the test sample for 10 hours. The supernatants were harvested by centrifugation and levels of the cytokines (TNF-α, IL-1β, IL-6, IL-8) measured by ELISA. To assess the cytotoxic effect of the plant extracts, the cellular viability test was performed using MTS reagent. The 50% inhibitory concentration (IC50) values were calculated by a nonlinear regression method using GraphPad software (Prism 3.03).
Effect on proinflammatory cytokines produced by synovial cells obtained from a RA patient was studied for compound 1 as described by procedure of example 8.

IL-8 [3] = assay: LPS-stimulated IL-8 release in hPBMCs (ELISA); format: cell-based; settings: Homo sapiens; LPS-stimulated hPBMC
Procedure: as §1, §2, §3

IC50 (IL-1β): 0.4 µM
IC50 (IL-6): 1.6 µM
IC50 (IL-8 [2]): 10.9 µM
IC50 (IL-8 [3]): 8.9 µM
SMILES: C=C1C(=O)OC2C3=C(C)CCCC3(C)CCC12O (stereo not shown) [Compound 1, 3a-hydroxy-5a,9-dimethyl-3-methylene-3a,4,5,5a,6,7,8,9b-octahydro-3H-naphtho[1,2-b]furan-2-one]
Fluorescence Intensity ([1]; 0.1 μM): 33421
Fold of control ([1]; 0.1 μM): 13
Fluorescence Intensity ([1]; 0.3 μM): 34024
Fold of control ([1]; 0.3 μM): 13
Fluorescence Intensity ([1]; 1 μM): 10195
Fold of control ([1]; 1 μM): 4
Fluorescence Intensity ([1]; 3 μM): 5728
Fold of control ([1]; 3 μM): 2
TNF-α stimulated monocytic THP-1 cell adhesion to HUVECs ([1]; at 1 μM): inhibited
